Data taken from patent publication US20090110671A1, “AGENT FOR ENHANCHING THE PRODUCTION OF COLLAGEN AND IT'S USE” (priority 2005, published 2009).

Assays:
NHDF cells [1] = assay: Experiment 2: collagen sedimented over cell surface and released in supernatant of NHDF cells, α,α-trehalose or maltose with AA-2G; assay type: cell-based, human
Description: Influence of α,α-trehalose and maltose on collagen production using NHDF cells was examined by the following experiment: Test solutions were prepared by dissolving either AA-2G; hydrous crystalline α,α-trehalose, a reagent grade specimen, commercialized by Hayashibara Biochemical Laboratories Inc., Okayama, Japan; or hydrous crystalline maltose, a reagent grade specimen, commercialized by Hayashibara Biochemical Laboratories Inc., Okayama; Japan, in […] The methods for culturing NHDF cells and quantifying the collagen-production level of the cells were conducted similarly as in Experiment 1. The collagen level in each culture supernatant of NHDF cells was determined in such a manner of collecting the culture supernatant and quantifying the collagen released in the supernatant by using “Sircol Collagen Quantification Kit”. As a control, D-MEM medium containing 50 μM AA-2G was used. These control and test solutions were respectively experimented using three wells, followed by calculating a mean value for collagen-production levels in the wells. The results are in Table 2 where the values are expressed with relative values for either or both of the levels of collagen, that had sedimented over the cell surfaces or released in the supernatants, in terms of their collagen-production levels of NHDF cells, which had been cultured in D-MEM medium containing 50 μM AA-2G, being regarded as 100.

NHDF cells [2] = assay: Experiment 4: collagen production in NHDF cells, saccharides combined with hyaluronic acid and/or chondroitin sulfate; assay type: cell-based, human
From the text: Influence of α,α-trehalose or a saccharide derivative thereof, or a combination use of any of these saccharides and hyaluronic acid and/or chondroitin sulfate on the collagen production by L-ascorbic acids was examined as follows. AA-2G and any one of hydrous crystalline α,α-trehalose, a reagent grade specimen commercialized by Hayashibara Biochemical Laboratories Inc., Okayama, Japan; α-maltosyl α,α-trehalose with a purity of at least 98% commercialized by Hayashibara Biochemical Laboratories Inc., Okayama, Japan; and “HALLODEX”, a product name of a syrup of saccharide derivatives of α,α-trehalose were dissolved in D-MEM medium to give final concentrations of 50 μM of AA-2G and 15.0 mg/ml of saccharides. Further, as another test solutions, those, which had been prepared similarly as in the above, were admixed with any one of hyaluronic acid, chondroitin sulfate, and a combination thereof to give respective concentrations of 1 mg/ml, 1 mg/ml, and 0.5 mg/ml of hyaluronic acid and chondroitin sulfate each. The medium supplemented with a syrup containing about 59%, d.s.b., of saccharide derivatives of α,α-trehalose was prepared to give a concentration of 15.0 mg/ml of the saccharide derivatives of α,α-trehalose contained in the syrup. The culture of NHDF cells and the quantification of collagen-production level thereof were carried out similarly as in Experiment 1. The results are in Table 4 where the values are expressed with relative values in terms of the collagen-production level of NHDF cells, being regarded as 100, when cultured in D-MEM medium containing AA-2G.

[3] = tested on: skin wrinkles/finely-wrinkles and flabby skin; assay: Experiment 5: self-evaluation of lotions on skin wrinkles/finely-wrinkles and flabby skin, four months; assay type: in vivo, human; settings: lotion, no saccharide, 3 times a day, 4 months
Description: The following experiment was conducted to examine the influence of α,α-trehalose or saccharide derivatives thereof and hyaluronic acid and/or chondroitin sulfate on the skin. Since there exists a relatively constant amount of L-ascorbic acid in vivo, the collagen production by L-ascorbic acid proceeds constantly. Based on the following basic formulation for lotion and the combination and composition in Table 5, 100 parts by weights of a lotion was prepared by adding to the basic formulation sodium hyaluronate, chondroitin sulfate, hydrous crystalline α,α-trehalose, a cosmetic grade specimen commercialized by Hayashibara Biochemical Laboratories Inc., Okayama, Japan, and “[…]”, a product name of a syrup having a solid content of about 75% and containing, on a dry solid basis, about 53% by weight of α-maltosyl α,α-trehalose and about 5% by weight of other saccharide derivatives of α,α-trehalose, and an adequate amount of refined water. In Table 5, the respective amounts of the added saccharide are expressed on a dry solid basis. The syrup containing saccharide derivatives of α,α-trehalose was added in an amount of the saccharide derivatives as shown in Table 5. Eleven women as volunteers, who had been suffering from skin wrinkles/finely-wrinkles or flabby skin, were allowed to wash their faces with any of the lotions having compositions in Table 5 three times a day for four months and then allowed to evaluate themselves about their face-skin conditions by comparing with those before use of the lotions.

NHDF cells [4] = assay: Experiment 3: collagen production in NHDF cells, α,α-trehalose and saccharide derivatives with or without AA-2G; assay type: cell-based, human
Description: Based on the confirmation that α,α-trehalose has an action of enhancing the collagen production by L-ascorbic acid, it was experimented as follows to confirm whether saccharide derivatives of α,α-trehalose have such a similar action and effect. Test solutions were prepared by dissolving in D-MEM medium any one of AA-2G, hydrous crystalline α,α-trehalose, a reagent grade specimen with a purity of at least 98%, commercialized by Hayashibara Biochemical Laboratories Inc., Okayama, Japan; “HALLODEX”, a product name of a syrup of saccharide derivatives of α,α-trehalose, having a solid content of about 75% and containing, on a dry solid basis, about 53% of α-maltosyl α,α-trehalose and about 5% of other saccharide derivatives of α,α-trehalose in total, to give final concentrations of 50 μM of AA-2G and 15.0 mg/ml of saccharides. As a control, test solutions were prepared by dissolving in D-MEM medium either of the above hydrous crystalline α,α-trehalose, α-maltosyl α,α-trehalose, or syrup of saccharide derivatives of α,α-trehalose to give a final concentration of 15.0 mg/ml. The medium admixed with the syrup containing saccharide derivatives of α,α-trehalose was adjusted to give a concentration of 15.0 mg/ml of saccharide derivatives of α,α-trehalose. The culture of NHDF cells and the quantification of collagen-production level thereof were carried out similarly as in Experiment 1. The results are in Table 3, where the values are expressed with relative values in terms of the collagen production level of NHDF cells, being regarded as 100, when cultured in D-MEM medium containing AA-2G.

[5] = tested on: NHDF cells (normal human dermal fibroblast cell); assay: Experiment 1: collagen production in NHDF cells (Sircol kit), α,α-trehalose with AA-2G; assay type: cell-based; settings: D-MEM with 50 μM AA-2G, no α,α-trehalose; reference regarded as 100
Description: Using “fibrocell NHDF”, a normal human dermal fibroblast cell, commercialized by Kurashiki Spinning Co., Ltd., Okayama, Japan (abbreviated as “NHDF cells”, hereinafter), experiment for studying the influence of α,α-trehalose on the collagen production by L-ascorbic acids was conducted based on the method described in Bioscience, Biotechnology, and Biochemistry, Vol. 68, No. 4, pp. 767-773, 2004. The method is outlined below: Test solutions were prepared by dissolving L-ascorbic acid 2-glucoside, a reagent grade specimen commercialized by Hayashibara Biochemical Laboratories Inc., Okayama, Japan (may be abbreviated as “AA-2G”, hereinafter), and α,α-trehalose, a reagent grade specimen commercialized by Hayashibara Biochemical Laboratories Inc., Okayama, Japan, in Dulbecco […] essential medium containing 10% (v/v) fetal calf serum and an antibiotic (abbreviated as “D-MEM”, hereinafter) to give a final concentration of 50 μM/ml of AA-2G and a final concentration of 7.5, 15 or 30 mg/ml of α,α-trehalose. NHDF cells, which had been successively cultured in D-MEM medium, were collected, re-suspended in a fresh preparation of D-MEM medium, inoculated to 96-well microplates at a cell concentration of 2.5×10^4 cells/200 μl/well, and cultured for 24 hours. Thereafter, the supernatants of the cultures were removed by sucking, and further cultured for five days after addition of any of the test solutions in a volume of 200 μl/well. As controls, the cells, which had been cultured for 24 hours, were further cultured for five days after addition of 200 μl/well of D-MEM medium, D-MEM medium supplemented with α,α-trehalose at a concentration of 30 mg/ml, or D-MEM medium supplemented with AA-2G at a concentration of 50 μM/ml. After completion of culturing, the supernatants of the cultures were removed by sucking, admixed with 50 μl/well of 1 M acetic acid solution containing 1 mg/ml of pepsin, and shaken for four hours to solubilize collagen adhered to the cell surfaces, followed by quantifying the content of collagen accumulated in the cells using “Sircol Collagen Quantification Kit”, commercialized by Biocolor Ltd. These control and test solutions were respectively experimented with three wells, followed by calculating a mean value for collagen-production levels in the wells. All the cultures of the NHDF cells were conducted in a 5% (v/v) CO2 incubator. The results are in Table 1 where the values are expressed with relative values in terms of the collagen-production level of NHDF cells, which had been cultured in D-MEM medium containing AA-2G, being regarded as 100.

[6] = saccharide 0.2 mg/ml + 50 μM AA-2G, relative to AA-2G = 100
[7] = saccharide 0.6 mg/ml + 50 μM AA-2G, relative to AA-2G = 100
[8] = saccharide 1.7 mg/ml + 50 μM AA-2G, relative to AA-2G = 100
[9] = saccharide 5.0 mg/ml + 50 μM AA-2G, relative to AA-2G = 100
[10] = saccharide 15.0 mg/ml + 50 μM AA-2G, relative to AA-2G = 100
[11] = sodium hyaluronate 0.5 part by weight
[12] = chondroitin sulfate 0.5 part by weight
[13] = D-MEM containing 50 μM AA-2G alone, reference regarded as 100

**Q.** `OC[C@H]1O[C@H](O[C@H]2[C@H](O)[C@@H](O)C(O)O[C@@H]2CO)[C@H](O)[C@@H](O)[C@@H]1O` (mixture of isomers) [maltose] was tested. Which “Collagen-production level, In supernatant” value (NHDF cells [1]; [6]) did it give?
**A.** 101

**Q.** What about the “Collagen-production level, Total” value (NHDF cells [1]; [6]) of the same compound?
**A.** 99

**Q.** What about the “Collagen-production level, In supernatant” value (NHDF cells [1]; [7]) of the same compound?
**A.** 134

**Q.** What about the “Collagen-production level, Total” value (NHDF cells [1]; [7]) of the same compound?
**A.** 92

**Q.** And the “Collagen-production level, In supernatant” value (NHDF cells [1]; [8])?
**A.** 288

**Q.** What about the “Collagen-production level, Total” value (NHDF cells [1]; [8]) of the same compound?
**A.** 97

**Q.** And the “Collagen-production level, In supernatant” value (NHDF cells [1]; [9])?
**A.** 256

**Q.** What about the “Collagen-production level, Total” value (NHDF cells [1]; [9]) of the same compound?
**A.** 61

**Q.** What about the “Collagen-production level, In supernatant” value (NHDF cells [1]; [10]) of the same compound?
**A.** 228

**Q.** What about the “Collagen-production level, Total” value (NHDF cells [1]; [10]) of the same compound?
**A.** 44

**Q.** With sodium hyaluronate as the compound, how does the Collagen-production level (NHDF cells [2]; no saccharide, 50 μM AA-2G + sodium hyaluronate 1 mg/ml) read?
**A.** 98

**Q.** And the “Evaluation A (remarkably efficacious)” value [3, 11]?
**A.** 0 number of volunteers

**Q.** What about the “Evaluation B (efficacious)” value [3, 11] of the same compound?
**A.** 0 number of volunteers

**Q.** And the “Evaluation C (slightly efficacious)” value [3, 11]?
**A.** 2 number of volunteers

**Q.** What about the “Evaluation D (inefficacious)” value [3, 11] of the same compound?
**A.** 9 number of volunteers

**Q.** With `OC[C@H]1O[C@H](O[C@H]2O[C@H](CO)[C@@H](O[C@H]3O[C@H](CO)[C@@H](O[C@H]4O[C@H](CO)[C@@H](O)[C@H](O)[C@H]4O)[C@H](O)[C@H]3O)[C@H](O)[C@H]2O)[C@H](O)[C@@H](O)[C@@H]1O` [α-Maltosyl α,α-trehalose, α-maltosyl α,α-trehalose] as the compound, how does the Collagen-production level (NHDF cells [4]; [10]) read?
**A.** 182

**Q.** What about the Collagen-production level (NHDF cells [4]; saccharide 15.0 mg/ml, AA-2G not added, relative to AA-2G = 100) of the same compound?
**A.** 39

**Q.** And the Collagen-production level (NHDF cells [2]; saccharide 15.0 mg/ml + 50 μM AA-2G)?
**A.** 158

**Q.** What about the Collagen-production level (NHDF cells [2]; saccharide 15.0 mg/ml + 50 μM AA-2G + chondroitin sulfate 1 mg/ml) of the same compound?
**A.** 188

**Q.** What about the Collagen-production level (NHDF cells [2]; saccharide 15.0 mg/ml + 50 μM AA-2G + hyaluronate and chondroitin sulfate 0.5 mg/ml each) of the same compound?
**A.** 276

**Q.** What about the Collagen-production level (NHDF cells [2]; saccharide 15.0 mg/ml + 50 μM AA-2G + sodium hyaluronate 1 mg/ml) of the same compound?
**A.** 199

**Q.** What about the Collagen-production level (NHDF cells [2]; saccharide 15.0 mg/ml alone, no AA-2G, no hyaluronate, no chondroitin sulfate) of the same compound?
**A.** 39

**Q.** How did the Collagen-production level (NHDF cells [2]; no saccharide, 50 μM AA-2G + chondroitin sulfate 1 mg/ml) turn out when chondroitin sulfate was run?
**A.** 97

**Q.** What about the “Evaluation A (remarkably efficacious)” value [3, 12] of the same compound?
**A.** 0 number of volunteers

**Q.** What about the “Evaluation B (efficacious)” value [3, 12] of the same compound?
**A.** 0 number of volunteers

**Q.** And the “Evaluation C (slightly efficacious)” value [3, 12]?
**A.** 1 number of volunteers

**Q.** And the “Evaluation D (inefficacious)” value [3, 12]?
**A.** 10 number of volunteers

**Q.** Which Collagen-production level (NHDF cells [4]; no saccharide, 50 μM AA-2G added, reference regarded as 100) does the source give for `O=C1O[C@H]([C@@H](O)CO)C(O)=C1O[C@H]1O[C@H](CO)[C@@H](O)[C@H](O)[C@H]1O` [AA-2G, L-ascorbic acid 2-glucoside, reference compound] here?
**A.** 100

**Q.** And the Collagen-production level [5]?
**A.** 100

**Q.** What about the Collagen-production level (NHDF cells [2]; no saccharide, 50 μM AA-2G alone, reference regarded as 100) of the same compound?
**A.** 100

**Q.** What about the “Collagen-production level, In supernatant” value (NHDF cells [1]; [13]) of the same compound?
**A.** 100

**Q.** And the “Collagen-production level, Total” value (NHDF cells [1]; [13])?
**A.** 100
